Measured values taken from publication PMC11263391, “Molecular insights into degron recognition by CRL5^ASB7 ubiquitin ligase” (Nature Communications, 2024).
Where two headings read alike, the source gives them in different places. Each block holds one compound with its values, some of them ahead of it. Residues, ends and D or L forms follow the SMILES beside them.

Molecular target: T1, ASB7-Elongin B/C (Homo sapiens, UniProt Q9H672)
T1 construct: The human ASB7 (residues 11–318) was amplified via PCR; His8-SUMO (pET28-MKH8SUMO) (N, cleaved yes); made in house; host or cells: Escherichia coli BL21 (DE3)
T1 sequence (Q9H672 11-318): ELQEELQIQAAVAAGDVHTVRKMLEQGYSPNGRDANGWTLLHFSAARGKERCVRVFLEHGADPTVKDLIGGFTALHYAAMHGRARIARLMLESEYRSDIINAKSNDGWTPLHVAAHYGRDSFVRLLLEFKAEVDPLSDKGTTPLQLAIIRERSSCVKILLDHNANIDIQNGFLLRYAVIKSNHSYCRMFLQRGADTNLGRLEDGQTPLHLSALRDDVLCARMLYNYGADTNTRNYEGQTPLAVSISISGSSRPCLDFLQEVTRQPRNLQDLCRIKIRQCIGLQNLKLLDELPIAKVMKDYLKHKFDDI
T1 sequence (Q15370 1-104 partner limits assumed): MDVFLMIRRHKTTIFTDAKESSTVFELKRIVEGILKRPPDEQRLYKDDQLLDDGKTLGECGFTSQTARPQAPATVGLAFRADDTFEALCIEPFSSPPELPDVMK
T1 sequence (Q15369 17-112 partner limits assumed): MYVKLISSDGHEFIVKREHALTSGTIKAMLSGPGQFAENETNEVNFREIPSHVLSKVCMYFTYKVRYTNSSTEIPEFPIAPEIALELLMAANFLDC
Test: ITC of degron peptides with wild-type ASB7-Elongin B/C
Format: binding
Details: for ASB7 binding ability of substituted peptide, in words: wild-type ASB7, compared with native LZTS1-degron; for -T∆S / ∆G / ∆H: wild-type ASB7-Elongin B/C; for ∆H: mean ± SD of three repeats
Experimental: The human ASB7 (residues 11-318) was amplified via PCR from a human cDNA library and seamlessly cloned into the pET28-MKH8SUMO vector (Addgene plasmid #79526). […] ITC assays were performed using a MicroCal PEAQ-ITC instrument (Malvern Panalytical) at 16 °C. […] All protein and peptide stocks were prepared in an ITC buffer (20 mM Tris-HCl pH 7.5, and 150 mM NaCl) and subsequently diluted to the desired concentrations (39-156 μM for ASB7 protein and 0.8-4 mM for the peptides, respectively). In each experiment, 1.5 μL of peptide was titrated into the ASB7 complex solution with 15 injections. The injections were spaced at 90 seconds with a reference power of 15 μcal/s. The ITC data were processed using MicroCal PEAQ-ITC Analysis software.

[1] = ITC, MicroCal PEAQ-ITC, 16 °C, 20 mM Tris-HCl pH 7.5, 150 mM NaCl, peptide (0.8–4 mM) titrated into wild-type ASB7-Elongin B/C (39–156 μM), 15 injections, mean ± SD of three independent repeats, read-out: KD
[2] = ITC, 16 °C, 20 mM Tris-HCl pH 7.5, 150 mM NaCl

Compound: CSCC[C@H](NC(=O)[C@H](CC(C)C)NC(=O)[C@H](CO)NC(=O)[C@H](CCC(=O)O)NC(=O)[C@H](CC(C)C)NC(=O)[C@H](CCC(=O)O)NC(=O)[C@H](CCC(N)=O)NC(=O)[C@@H](N)CCCNC(=N)N)C(=O)N[C@@H](CCCCN)C(=O)N[C@@H](CCCNC(=N)N)C(=O)N[C@@H](CCC(N)=O)C(=O)N[C@@H](CC(=O)O)C(=O)N[C@@H](CC(C)C)C(=O)N[C@@H](CC(C)C)C(=O)N[C@@H](CCC(=O)O)C(=O)N[C@H](C(=O)N[C@@H](CCCCN)C(=O)N[C@@H](CC(C)C)C(=O)N[C@@H](CCCNC(=N)N)C(=O)N[C@@H](CO)C(=O)N[C@@H](Cc1ccc(O)cc1)C(=O)N[C@@H](CCC(=O)O)C(=O)N[C@@H](CCCNC(=N)N)C(=O)O)[C@@H](C)O [E8R] (H-RQELESLMKRQDLLETKLRSYER-OH; N-terminus and C-terminus assumed)
- Kd [1]: > 30 µM
- ASB7 binding ability of substituted peptide, in words (ITC): almost complete loss

Compound: CSCC[C@H](NC(=O)[C@H](CCCNC(=N)N)NC(=O)[C@H](CO)NC(=O)[C@H](CCC(=O)O)NC(=O)[C@H](CC(C)C)NC(=O)[C@H](CCC(=O)O)NC(=O)[C@H](CCC(N)=O)NC(=O)[C@@H](N)CCCNC(=N)N)C(=O)N[C@@H](CCCCN)C(=O)N[C@@H](CCC(=O)O)C(=O)N[C@@H](CCC(N)=O)C(=O)N[C@@H](CC(=O)O)C(=O)N[C@@H](CC(C)C)C(=O)N[C@@H](CC(C)C)C(=O)N[C@@H](CCC(=O)O)C(=O)N[C@H](C(=O)N[C@@H](CCCCN)C(=O)N[C@@H](CC(C)C)C(=O)N[C@@H](CCCNC(=N)N)C(=O)N[C@@H](CO)C(=O)N[C@@H](Cc1ccc(O)cc1)C(=O)N[C@@H](CCC(=O)O)C(=O)N[C@@H](CCCNC(=N)N)C(=O)O)[C@@H](C)O [L5R] (H-RQELESRMKEQDLLETKLRSYER-OH; N-terminus and C-terminus assumed)
- Kd [1]: > 30 µM
- ASB7 binding ability of substituted peptide, in words (ITC): almost complete loss

Compound: EIGELKAVMEGIKMEHQLELGN [CLIP2-degron, synthetic degron peptide derived from CLIP2]
- -T∆S [2]: 2.57 kcal/mol
- ∆G [2]: -8.23 kcal/mol
- ∆H [2]: -10.8 ± 0.25 kcal/mol

Compound: CSCC[C@H](NC(=O)[C@H](CC(C)C)NC(=O)[C@H](CO)NC(=O)[C@H](CCC(=O)O)NC(=O)[C@H](CC(C)C)NC(=O)[C@@H](N)CCC(=O)O)C(=O)N[C@@H](CCCCN)C(=O)N[C@@H](CCC(=O)O)C(=O)N[C@@H](CCC(N)=O)C(=O)N[C@@H](CC(=O)O)C(=O)N[C@@H](CC(C)C)C(=O)N[C@@H](CC(C)C)C(=O)N[C@@H](CCC(=O)O)C(=O)N[C@H](C(=O)N[C@@H](CCCCN)C(=O)N[C@@H](CC(C)C)C(=O)N[C@@H](CCCNC(=N)N)C(=O)N[C@@H](CO)C(=O)N[C@@H](Cc1ccc(O)cc1)C(=O)N[C@@H](CCC(=O)O)C(=O)N[C@@H](CCCNC(=N)N)C(=O)O)[C@@H](C)O (H-ELESLMKEQDLLETKLRSYER-OH)
- Kd [1]: 0.7 ± 0.31 µM

Compound: CSCC[C@H](NC(=O)[C@H](CC(C)C)NC(=O)[C@H](CO)NC(=O)[C@H](CCC(=O)O)NC(=O)[C@H](CC(C)C)NC(=O)[C@@H](N)CCC(=O)O)C(=O)N[C@@H](CCCCN)C(=O)N[C@@H](CCC(=O)O)C(=O)N[C@@H](CCC(N)=O)C(=O)O (H-ELESLMKEQ-OH; N-terminus and C-terminus assumed)
- Kd [1]: > 30 µM

Compound: CSCC[C@H](NC(=O)[C@H](CC(C)C)NC(=O)[C@H](CO)NC(=O)[C@H](CCC(=O)O)NC(=O)[C@H](CC(C)C)NC(=O)[C@@H](N)CCC(=O)O)C(=O)O [ELESLM] (H-ELESLM-OH)
- Kd: > 30 µM

Compound: CSCC[C@H](NC(=O)[C@H](CC(C)C)NC(=O)[C@H](CO)NC(=O)[C@H](CCC(=O)O)NC(=O)[C@H](CC(C)C)NC(=O)[C@@H](N)CCC(=O)O)C(=O)N[C@@H](CCCCN)C(=O)N[C@@H](CCC(=O)O)C(=O)N[C@@H](CCC(N)=O)C(=O)N[C@@H](CC(=O)O)C(=O)N[C@@H](CC(C)C)C(=O)N[C@@H](CC(C)C)C(=O)N[C@@H](CCC(=O)O)C(=O)O (H-ELESLMKEQDLLE-OH; N-terminus and C-terminus assumed)
- Kd [1]: > 30 µM

Compound: ELEKAKQECQDLKGKLEKCCRH [CEP152-degron, synthetic degron peptide derived from CEP152]
- -T∆S [2]: -4.79 kcal/mol
- ∆G [2]: -6.59 kcal/mol
- ∆H [2]: -1.8 ± 0.09 kcal/mol
- Kd [1]: 3.8 µM

Now from value to compound:

- Kd [1]: 0.7 ± 0.05 µM
Compound: CSCC[C@H](NC(=O)[C@H](CC(C)C)NC(=O)[C@H](CO)NC(=O)[C@H](CCC(=O)O)NC(=O)[C@H](CC(C)C)NC(=O)[C@H](CCC(=O)O)NC(=O)[C@H](CCC(N)=O)NC(=O)[C@@H](N)CCCNC(=N)N)C(=O)N[C@@H](CCCCN)C(=O)N[C@@H](CCC(=O)O)C(=O)N[C@@H](CCC(N)=O)C(=O)N[C@@H](CC(=O)O)C(=O)N[C@@H](CC(C)C)C(=O)N[C@@H](CC(C)C)C(=O)N[C@@H](CCC(=O)O)C(=O)N[C@H](C(=O)N[C@@H](CCCCN)C(=O)N[C@@H](CC(C)C)C(=O)N[C@@H](CCCNC(=N)N)C(=O)N[C@@H](CO)C(=O)N[C@@H](CCCNC(=N)N)C(=O)N[C@@H](CCC(=O)O)C(=O)N[C@@H](CCCNC(=N)N)C(=O)O)[C@@H](C)O [Y19R] (H-RQELESLMKEQDLLETKLRSRER-OH)

- Kd [1]: > 30 µM
- ASB7 binding ability of substituted peptide, in words (ITC): almost complete loss
Compound: CSCC[C@H](NC(=O)[C@H](CC(C)C)NC(=O)[C@H](CO)NC(=O)[C@H](CCC(=O)O)NC(=O)[C@H](CC(C)C)NC(=O)[C@H](CCC(=O)O)NC(=O)[C@H](CCC(N)=O)NC(=O)[C@@H](N)CCCNC(=N)N)C(=O)N[C@@H](CCCCN)C(=O)N[C@@H](CCC(=O)O)C(=O)N[C@@H](CCC(N)=O)C(=O)N[C@@H](CC(=O)O)C(=O)N[C@@H](CC(C)C)C(=O)N[C@@H](CCCNC(=N)N)C(=O)N[C@@H](CCC(=O)O)C(=O)N[C@H](C(=O)N[C@@H](CCCCN)C(=O)N[C@@H](CC(C)C)C(=O)N[C@@H](CCCNC(=N)N)C(=O)N[C@@H](CO)C(=O)N[C@@H](Cc1ccc(O)cc1)C(=O)N[C@@H](CCC(=O)O)C(=O)N[C@@H](CCCNC(=N)N)C(=O)O)[C@@H](C)O [L12R] (H-RQELESLMKEQDLRETKLRSYER-OH; N-terminus and C-terminus assumed)

- Kd [1]: > 30 µM
- ASB7 binding ability of substituted peptide, in words (ITC): almost complete loss
Compound: CSCC[C@H](NC(=O)[C@H](CC(C)C)NC(=O)[C@H](CO)NC(=O)[C@H](CCC(=O)O)NC(=O)[C@H](CC(C)C)NC(=O)[C@H](CCC(=O)O)NC(=O)[C@H](CCC(N)=O)NC(=O)[C@@H](N)CCCNC(=N)N)C(=O)N[C@@H](CCCCN)C(=O)N[C@@H](CCC(=O)O)C(=O)N[C@@H](CCC(N)=O)C(=O)N[C@@H](CC(=O)O)C(=O)N[C@@H](CC(C)C)C(=O)N[C@@H](CC(C)C)C(=O)N[C@@H](CCC(=O)O)C(=O)N[C@H](C(=O)N[C@@H](CCCCN)C(=O)N[C@@H](CCCNC(=N)N)C(=O)N[C@@H](CCCNC(=N)N)C(=O)N[C@@H](CO)C(=O)N[C@@H](Cc1ccc(O)cc1)C(=O)N[C@@H](CCC(=O)O)C(=O)N[C@@H](CCCNC(=N)N)C(=O)O)[C@@H](C)O [L16R] (H-RQELESLMKEQDLLETKRRSYER-OH; N-terminus and C-terminus assumed)
